Measured values as given in ChEMBL document CHEMBL3507680, “University of Dundee, Gates Library screen for HepG2 cell viability”.

assay: Human HepG2 cell viability assay in 384 well format; type: toxicity, cell-based; parameters: dose 125 nL, time 70.5 hour; cytotoxicity at 70.5 h: concentration not given beside the values; settings: HepG2 cells, read-out: Inhibition

Row | Compound | cytotoxicity at 70.5 h
1 | CN1CCN([C@H]2CCN(C(=O)c3cc(Cl)cn3C)C[C@H]2CCCO)CC1 | -14.3%
2 | Cc1ccc2c(n1)N(Cc1ccncc1)CCN(S(C)(=O)=O)C2 | -10%
3 | CC(C)n1c2ccccc2c2c1cc(C(=O)N(C)C)n2S(C)(=O)=O | 13.1%
4 | CCCn1nc2c(cc1=O)CN(Cc1nc(C)c(C)o1)CC2 | -9.42%
5 | N#Cc1cc(NS(=O)(=O)c2cc(C(=O)O)cc(Cl)c2Cl)ccc1F | 0.738%
6 | CN1CCc2c(C#N)c(NCc3ccncc3)n3cnnc3c2C1 | -14.7%
7 | CCCC(=O)NC1CCCN(Cc2cccs2)C1 (stereo unspecified) | -18.1%
8 | COc1ccc(-c2n[nH]cc2CNC2CCN(C3CC3)CC2)cc1 | -2.67%
9 | COCC(=O)N1CCCC2(CCN(c3cncnc3)C2=O)C1 (stereo unspecified) | -8.34%
10 | CC(=O)c1c(C)nn(CC(=O)Nc2ccc(F)cc2)c1C | 30%
11 | CC(=O)c1ccc(CNC(=O)c2c(C)cc(C)cc2C)nc1C | 3.34%
12 | Cc1ccccc1CN(CCN(C)C)C(=O)c1ccc2nccn2c1 | 0.498%
13 | CC(NC(=O)Nc1cccnc1N1CCOCC1)c1ccncc1 (stereo unspecified) | 6.43%
14 | NC(=O)CN1CCCCC1c1nc(N)ncc1-c1cccc(F)c1 (stereo unspecified) | -4.69%
15 | CCCNC(=O)COc1cccc(-c2nc(C(C)C)no2)c1 | 0.882%
16 | OCc1cc(C2CCCN2c2ncccn2)n[nH]1 (stereo unspecified) | 0.468%
17 | CCOc1ccc(Cl)c(C(=O)NC(C)C(N)=O)n1 (stereo unspecified) | -5.7%
18 | CC[C@@H]1N(Cc2ccncc2)CCC[C@]12CCC(=O)N2CCOC | -4.38%
19 | Cc1cc(CN2CCN(C(=O)NCc3ccoc3)CC2)no1 | -1.05%
20 | COCC(=O)Nc1ccc([C@@H](O)[C@H]2COCC(=O)N2CC(C)C)cc1 | 8.86%
21 | CC(C)[C@@H]1CN(C(=O)c2ccc3c(c2)CCCO3)C[C@H]1NS(C)(=O)=O | -1.93%

Row | Compound | cytotoxicity at 70.5 h
22 | Cc1nc(NCc2nonc2C)cc(C(C)Cn2nc(C)c(C)c2C)n1 (stereo unspecified) | -7.72%
23 | COCc1nccc(C2CCCN(Cc3ccc(C#N)cc3)C2)n1 (stereo unspecified) | -5.34%
24 | O=C(C1CCOCC1)N1C[C@H]2CNC[C@H]2C1 | -1.57%
25 | OC(CN1CCC(c2ccn[nH]2)CC1)c1cccc(C(F)(F)F)c1 (stereo unspecified) | -7.35%
26 | Cc1cnn(CC2CN(CC(=O)Nc3ccnn3C(C)C)CCO2)c1 (stereo unspecified) | -6.91%
27 | COCCN(C)C[C@@H]1CN(C(=O)c2ccc(C)cc2)C[C@@H]1CO | -9.29%
28 | Cc1ccc(-c2nnc(SCC(=O)O)n2-c2ccccc2)cc1 | -10.9%
29 | Cc1cc(N2CCC(NC(=O)CCC3CCCO3)CC2)nc(C)n1 (stereo unspecified) | -5.62%
30 | CCc1ccc(CN2CCN(C)C3(CCC(=O)N(CC4CC4)CC3)C2)o1 (stereo unspecified) | -1.68%
31 | Cc1nc2cc(F)cc(C(=O)N3CCN(CCO)CC3)c2nc1C | -5.18%
32 | O=c1[nH]cccc1-c1nccc(C2(c3ccccc3Cl)CCNCC2)n1 | 29.1%
33 | Cn1cc(C2(C)CN(c3ncccc3C#N)CCO2)cn1 (stereo unspecified) | 3.03%
34 | Cc1ccc(C(=O)N2C[C@@H]3CCN(c4cccnc4)C[C@@H]3C2)cn1 | -12.4%
35 | COc1cccc(CN2CCCC(Cn3nc(C)nc3C)C2)c1 (stereo unspecified) | -1.83%
36 | CC(C)N(C(=O)c1ccccc1-c1nc2c([nH]1)CCNC2)C(C)C | 5.55%
37 | Cc1ccc(S(=O)(=O)NCC2CNCCOC2)cc1Cl (stereo unspecified) | -2.6%
38 | Cc1ccc(CN2C[C@@H]3CCN(Cc4ccncc4)C(=O)[C@H]3C2)s1 | -8.9%
39 | NCC1(c2cccc(Br)c2)CCOCC1 | -5.45%
40 | Cc1c(F)cc(C(=O)O)cc1S(=O)(=O)Nc1ccc(F)c(C#N)c1 | -9.42%
41 | Cc1c(Br)cccc1S(=O)(=O)NCc1ccnn1C | -3.27%
42 | Cc1cnc(N2CC3(CCN(S(=O)(=O)C4CC4)C3)C2)nc1 | -11.5%

Row | Compound | cytotoxicity at 70.5 h
43 | O=c1[nH][nH]cc1-c1ccnc(NCCc2ccc(F)cc2)n1 | -6.1%
44 | CN(CCC(=O)N1CCCC(Cc2cccnc2)C1)Cc1cccnc1 (stereo unspecified) | -6.27%
45 | N#Cc1cc(N2CCC(CS(N)(=O)=O)CC2)nc2ccccc12 | 1.54%
46 | CS(=O)(=O)N1CCO[C@@H]2CN(C(=O)COC3CCCC3)C[C@@H]2C1 | 7.96%
47 | Cc1nc(C)c(CC(=O)N2C[C@@H]3CC[C@H](C2)N(CC2CC2)C3)s1 | -3.8%
48 | Cc1[nH]c2ccccc2c1CCNc1ncnc2c1CCNCC2 | 0.111%
49 | O=C(Nc1ccc2c(ccn2CCN2CCOCC2)c1)c1ccccn1 | -3.62%
50 | OC1CCN(Cc2cc3c(cc2Br)OCCO3)CC1 | 0.754%
51 | CCNC(=O)[C@@H]1C[C@@H](N)CN1C(=O)c1cc2ccccc2[nH]1 | -1.64%
52 | OCC1(NCc2cnc(-c3ccccn3)s2)CCOCC1 | 28%
53 | Cc1cc(S(=O)(=O)Nc2onc(C)c2C)c(C)s1 | -3.24%
54 | Nc1ccc(C(=O)N2CCCC(C(=O)CCc3ccccc3)C2)cn1 (stereo unspecified) | -20%
55 | Cc1nc(CN2CCC3(CC2)NC(=O)CC3c2ccccc2)cs1 (stereo unspecified) | -2.14%
56 | CC(C)C(C(=O)O)c1cccc(Cl)c1 (stereo unspecified) | -7.66%
57 | CC(C)OCCC(=O)NCCc1csc(N2CCCC2)n1 | 5.53%
58 | CCCc1cc(C(=O)NC(c2ccccc2)c2n[nH]c(C)n2)[nH]n1 (stereo unspecified) | -7.51%
59 | Cc1cc(N)cc(C2CN(Cc3cc[nH]n3)CCO2)n1 (stereo unspecified) | -6.43%
60 | CCc1cc(NC(CCO)c2ccc(OC)cc2)n2nccc2n1 (stereo unspecified) | -0.73%
61 | COCc1nc(N(C)C/C=C/c2ccccc2)c2cnn(C)c2n1 | -8.43%
62 | CNc1ncccc1C(=O)N1CCc2c(nc(N)[nH]c2=O)C1 | -3.13%
63 | Cc1ccc(CN2CCC(O)(Cn3nc(-c4cccs4)oc3=O)CC2)o1 | -1.27%

Row | Compound | cytotoxicity at 70.5 h
64 | Cc1n[nH]c(C2CN(C(=O)c3ccon3)CCO2)n1 (stereo unspecified) | -10.2%
65 | CCNC(=O)[C@@H]1C[C@@H](N)CN1C(=O)CCc1ccc(C)c(C)c1 | -10.5%
66 | Cc1ccc2c(c1)C(N1CCOCC1)CC21CCNCC1 (stereo unspecified) | -8.36%
67 | Cc1ccc(N2CCN(C(=O)COc3ncccn3)CC2)nn1 | -7.37%
68 | c1nc(N2CCOCC2)nc2c1COCC21CCN(CC2CC2)C1 (stereo unspecified) | -6.25%
69 | CCn1nc2c(cc1=O)CN(Cc1nc(N)c3ccccc3n1)CC2 | -2.07%
70 | COc1cc(C(=O)N2CCCC(n3cncn3)C2)ccc1C (stereo unspecified) | -8.45%
71 | Cc1csc(CN2CC[C@H]3C[C@H](C)O[C@@H]3C2)n1 | -10.4%
72 | CN(C)S(=O)(=O)N1CC[C@]2(C[C@@H](OCc3ccccn3)CO2)C1 | -1.04%
73 | COc1ccc(N2CCN(C(=O)C3CN(C)C(=O)N3)CC2(C)C)cc1 (stereo unspecified) | -8.78%
74 | CC(=O)NCCOc1cccc(Br)c1 | 2.45%
75 | CN(Cc1nncn1C)c1nccc(N2CCC(O)CC2)n1 | -4.03%
76 | CC(C)(N)c1nc(C(F)F)cc(=O)[nH]1 | -6.3%
77 | CC(=O)N(Cc1noc(C)n1)C1CCN(CCOc2ccccc2)C1 (stereo unspecified) | 1.16%
78 | O=C(NCc1nc2ccccc2[nH]1)c1cc2n(n1)CCCO2 | -1.37%
79 | Cc1ccc(C(C)NCc2c(C(C)C)nn(C)c2N2CCOCC2)o1 (stereo unspecified) | -5.88%
80 | Cc1ccc(S(=O)(=O)N(C)Cc2nccs2)cc1N(C)C | 6.76%
81 | Cc1ccc(C(=O)Nc2nn[nH]n2)s1 | -0.43%
